Literature values, collected in US10034966B2, “Coated vaso-occlusive device and methods for treatment of aneurysms” (Carnegie Mellon University, priority 2013, dated 2018).

Test system: L929 fibroblasts

COC(=O)C1=CO[C@@H](O)[C@@H]2C(CO)=CC[C@H]12 [genipin, methyl (1S,2R,6S)-2-hydroxy-9-(hydroxymethyl)-3-oxabicyclo[4.3.0]nona-4,8-diene-5-carboxylate]
cell death to L929 fibroblasts (exposures of 5 mM and 10 mM): can cause cell death
cytotoxicity, cell samples compared with controls (incubated in 1 mM): indistinguishable from controls
